# “And” between values parts separate entries of the source, which are not always exact repeats. Identical values can stand only once.
# Test system: Pseudomonas aeruginosa ATCC 27853 (GN_042)
# Experiment: Synergy of cannabidiol with cell-wall disrupting agent (CBD MIC in combination, FICI)
# Format: cell-based
# Experimental: The compounds were stored short term at 4° C.
# Analysis was performed using Microsoft Excel.
# [1] = CBD with Ceftazidime, Pseudomonas aeruginosa ATCC 27853
smiles,measurement,setting,value
"C=C(C)C1CCC(C)=CC1c1c(O)cc(CCCCC)cc1O (centres unmarked) [Cannabidiol, 2-[3-methyl-6-(1-methylethenyl)-2-cyclohexen-1-yl]-5-pentyl-1,3-benzenediol]",CBD MIC with Aztreonam,Aztreonam at 4 μg/mL,0.001 µg/mL
same,FICI,"CBD with Aztreonam at 0.25 μg/mL, CBD MIC taken as 256 μg/mL",1.0625
same,FICI,"CBD with Aztreonam at 1 μg/mL, CBD MIC taken as 256 μg/mL",1.25
same,FICI,"CBD with Aztreonam at 2 μg/mL, CBD MIC taken as 256 μg/mL",0.5004 and 0.5039
same,FICI,"CBD with Aztreonam at 4 μg/mL, CBD MIC taken as 256 μg/mL",1
same,FICI range,"CBD with Aztreonam, Synergy table (Table 76)",0.5
same,FICI range,"CBD with Aztreonam, all tested concentrations (Table 74)",0.5-1.25
same,FICI,"CBD with Cefepime at 0.015 μg/mL, CBD MIC taken as 256 μg/mL",1
same,FICI,"CBD with Cefepime at 0.031 μg/mL, CBD MIC taken as 256 μg/mL",1
same,FICI,"CBD with Cefepime at 0.062 μg/mL, CBD MIC taken as 256 μg/mL",1
same,FICI,"CBD with Cefepime at 0.25 μg/mL, CBD MIC taken as 256 μg/mL",1.001
same,FICI,"CBD with Cefepime at 0.5 μg/mL, CBD MIC taken as 256 μg/mL",1.002
same,FICI range,"CBD with Cefepime, all tested concentrations (Table 79)",1-1
same,FICI,"CBD with Cefotetan at 4 μg/mL, CBD MIC taken as 256 μg/mL",1.016
same,FICI,"CBD with Cefotetan at 16 μg/mL, CBD MIC taken as 256 μg/mL",1.0625
same,FICI,"CBD with Cefotetan at 64 μg/mL, CBD MIC taken as 256 μg/mL",1.25
same,FICI,"CBD with Cefotetan at 128 μg/mL, CBD MIC taken as 256 μg/mL",1.5
same,FICI range (MIC table),"CBD with Cefotetan, Pseudomonas aeruginosa ATCC 27853",1.02-1.5
same,FICI,"CBD with Ceftazidime at 0.25 μg/mL, Pseudomonas aeruginosa ATCC 27853",1.0625
same,FICI,"CBD with Ceftazidime at 1 μg/mL, Pseudomonas aeruginosa ATCC 27853",1.25
same,FICI,"CBD with Ceftazidime at 2 μg/mL, Pseudomonas aeruginosa ATCC 27853",0.5
same,FICI,"CBD with Ceftazidime at 4 μg/mL, Pseudomonas aeruginosa ATCC 27853",1
same,FICI range (MIC table),[1],0.5-1.25
same,FICI range (Synergy table),[1],0.5
same,FICI,"CBD with Cefuroxime at 4 μg/mL, Pseudomonas aeruginosa ATCC 27853",1.016
same,FICI,"CBD with Cefuroxime at 16 μg/mL, Pseudomonas aeruginosa ATCC 27853",1.0625
same,FICI,"CBD with Cefuroxime at 64 μg/mL, Pseudomonas aeruginosa ATCC 27853",1.25
same,FICI,"CBD with Cefuroxime at 128 μg/mL, Pseudomonas aeruginosa ATCC 27853",1.5
same,FICI,"CBD with Colistin at 0.031 μg/mL, Pseudomonas aeruginosa ATCC 27853",1.031
same,FICI,"CBD with Colistin at 0.062 μg/mL, Pseudomonas aeruginosa ATCC 27853",1.062
same,FICI,"CBD with Colistin at 0.25 μg/mL, Pseudomonas aeruginosa ATCC 27853",1.25
same,FICI,"CBD with Colistin at 0.5 μg/mL, Pseudomonas aeruginosa ATCC 27853",1.5
same,FICI,"CBD with Colistin at 1 μg/mL, Pseudomonas aeruginosa ATCC 27853",1
same,FICI range (MIC table),"CBD with Colistin, Pseudomonas aeruginosa ATCC 27853",1-1.5
same,FICI range (MIC table),"CBD with MCC_6442, Pseudomonas aeruginosa ATCC 27853",1-1.5
same,FICI,"CBD with MCC_6442 at 0.25 μg/mL, Pseudomonas aeruginosa ATCC 27853",1.0625
same,FICI,"CBD with MCC_6442 at 1 μg/mL, Pseudomonas aeruginosa ATCC 27853",1.25
same,FICI,"CBD with MCC_6442 at 2 μg/mL, Pseudomonas aeruginosa ATCC 27853",1.5
same,FICI,"CBD with MCC_6442 at 4 μg/mL, Pseudomonas aeruginosa ATCC 27853",1
same,FICI,"CBD with Octapeptin C4 at 0.25 μg/mL, CBD MIC taken as 256 μg/mL",1.0625
same,FICI,"CBD with Octapeptin C4 at 0.5 μg/mL, CBD MIC taken as 256 μg/mL",1.0625
same,FICI,"CBD with Octapeptin C4 at 1 μg/mL, CBD MIC taken as 256 μg/mL",1.25
same,FICI,"CBD with Octapeptin C4 at 2 μg/mL, CBD MIC taken as 256 μg/mL",1.25 and 1.5
same,FICI,"CBD with Octapeptin C4 at 4 μg/mL, CBD MIC taken as 256 μg/mL",0.5 and 1
same,FICI,"CBD with Octapeptin C4 at […], CBD MIC taken as 256 μg/mL",1.016
same,FICI range,"CBD with Spero SPR206, 1st of 3 experiments",1-4
same,FICI range,"CBD with Spero SPR206, 3rd of 3 experiments",1.13-5
same,FICI,"CBD with Spero SPR206 at 0.25 μg/mL, 1st of 3 experiments, CBD MIC taken as 256 μg/mL",1.25
same,FICI,"CBD with Spero SPR206 at 0.25 μg/mL, 3rd of 3 experiments, CBD MIC taken as 256 μg/mL",1.25
same,FICI,"CBD with Spero SPR206 at 0.5 μg/mL, 1st of 3 experiments, CBD MIC taken as 256 μg/mL",1.5
same,FICI,"CBD with Spero SPR206 at 0.5 μg/mL, 3rd of 3 experiments, CBD MIC taken as 256 μg/mL",1.5
same,FICI,"CBD with Spero SPR206 at 1 μg/mL, 1st of 3 experiments, CBD MIC taken as 256 μg/mL",1
same,FICI,"CBD with Spero SPR206 at 1 μg/mL, 3rd of 3 experiments, CBD MIC taken as 256 μg/mL",2
same,FICI,"CBD with Spero SPR206 at 2 μg/mL, 1st of 3 experiments, CBD MIC taken as 256 μg/mL",2
same,FICI,"CBD with Spero SPR206 at 2 μg/mL, 3rd of 3 experiments, CBD MIC taken as 256 μg/mL",3
same,FICI,"CBD with Spero SPR206 at 4 μg/mL, 1st of 3 experiments, CBD MIC taken as 256 μg/mL",4
same,FICI,"CBD with Spero SPR206 at 4 μg/mL, 3rd of 3 experiments, CBD MIC taken as 256 μg/mL",5
same,FICI,"CBD with Ticarcillin at 2 μg/mL, Pseudomonas aeruginosa ATCC 27853",1.0625
same,FICI,"CBD with Ticarcillin at 4 μg/mL, Pseudomonas aeruginosa ATCC 27853",1.25
same,FICI,"CBD with Ticarcillin at 8 μg/mL, Pseudomonas aeruginosa ATCC 27853, listed as CBD",1.25 and 1.5
same,FICI,"CBD with Ticarcillin at 16 μg/mL, Pseudomonas aeruginosa ATCC 27853, listed as CBD",0.5 and 1
same,FICI,"CBD with Ticarcillin at 32 μg/mL, Pseudomonas aeruginosa ATCC 27853, listed as CBD",1 and 2
same,FICI,"CBD with Ticarcillin at 64 μg/mL, Pseudomonas aeruginosa ATCC 27853, listed as CBD",2 and 4
same,FICI range (Synergy table),"CBD with Ticarcillin, Pseudomonas aeruginosa ATCC 27853",0.5
same,CBD MIC with Cefotetan,Cefotetan at 4 μg/mL,>32 µg/mL
same,CBD MIC with Cefotetan,"Cefotetan at 4 μg/mL, Pseudomonas aeruginosa ATCC 27853",>256 µg/mL
same,CBD MIC with Cefotetan,Cefotetan at 8 μg/mL,>32 µg/mL
same,CBD MIC with Cefotetan,"Cefotetan at 8 μg/mL, Pseudomonas aeruginosa ATCC 27853",>256 µg/mL
same,CBD MIC with Cefotetan,Cefotetan at 16 μg/mL,>32 µg/mL
same,CBD MIC with Cefotetan,"Cefotetan at 16 μg/mL, Pseudomonas aeruginosa ATCC 27853",>256 µg/mL
same,CBD MIC with Cefotetan,Cefotetan at 32 μg/mL,>32 µg/mL
same,CBD MIC with Cefotetan,"Cefotetan at 32 μg/mL, Pseudomonas aeruginosa ATCC 27853",>256 µg/mL
same,CBD MIC with Cefotetan,Cefotetan at 64 μg/mL,>32 µg/mL
same,CBD MIC with Cefotetan,"Cefotetan at 64 μg/mL, Pseudomonas aeruginosa ATCC 27853",>256 µg/mL
same,CBD MIC with Cefotetan,Cefotetan at 128 μg/mL,>32 µg/mL
same,CBD MIC with Cefotetan,"Cefotetan at 128 μg/mL, Pseudomonas aeruginosa ATCC 27853",>256 µg/mL
same,CBD MIC with Ceftazidime,"Ceftazidime at 0.015 μg/mL as headed in Table 64, Pseudomonas aeruginosa ATCC 27853",>256 µg/mL
same,CBD MIC with Ceftazidime,"Ceftazidime at 0.031 μg/mL as headed in Table 64, Pseudomonas aeruginosa ATCC 27853",>256 µg/mL
same,CBD MIC with Ceftazidime,"Ceftazidime at 0.062 μg/mL as headed in Table 64, Pseudomonas aeruginosa ATCC 27853",>256 µg/mL
same,CBD MIC with Ceftazidime,"Ceftazidime at 0.25 μg/mL (Table 66), Pseudomonas aeruginosa ATCC 27853",>32 µg/mL
same,CBD MIC with Ceftazidime,"Ceftazidime at 0.25 μg/mL as headed in Table 64, Pseudomonas aeruginosa ATCC 27853",0.001 µg/mL
same,CBD MIC with Ceftazidime,"Ceftazidime at 0.5 μg/mL (Table 66), Pseudomonas aeruginosa ATCC 27853",>32 µg/mL
same,CBD MIC with Ceftazidime,"Ceftazidime at 0.5 μg/mL as headed in Table 64, Pseudomonas aeruginosa ATCC 27853",0.001 µg/mL

# From US20230013669A1, “Antibacterial Treatment Using a Cannabinoid and an Active Agent” (priority 2019, published 2023)
